# System: 857933-349-R-J2-PDC complex spheroid viability
# Assay: Anticancer human tumor 857933-349-R-J2-PDC patient-derived colon adenocarcinoma cell line growth inhibition [POLQ]
# Settings: for IC50: curve of first compound; for viability, T/C: stronger effect = lower value
# Summary of the method: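 PDC + HUVEC + MSC complex spheroids; POLQ inhibitors ± partner drugs; top conc. at/near clinical Cmax, else 10 microM (SN-38 1 microM), half-log dilutions; 37 degrees C, 5% CO2.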
# [1] = second compound 0.0316 µM, first compound 0.0316 µM
# [2] = second compound 0.0316 µM, first compound 0.1 µM
# [3] = second compound 0.0316 µM, first compound 0.316 µM
# [4] = second compound 0.0316 µM, first compound 1 µM
# [5] = second compound 0.0316 µM, first compound 3.16 µM
# [6] = second compound 0.0316 µM, first compound 10 µM
# [7] = second compound 0.1 µM, first compound 0.0316 µM
# [8] = second compound 0.1 µM, first compound 0.1 µM
# [9] = second compound 0.1 µM, first compound 0.316 µM
# [10] = second compound 0.1 µM, first compound 1 µM
# [11] = second compound 0.1 µM, first compound 3.16 µM
# [12] = second compound 0.1 µM, first compound 10 µM
# [13] = second compound 0.316 µM, first compound 0.0316 µM
# [14] = second compound 0.316 µM, first compound 0.1 µM
# [15] = second compound 0.316 µM, first compound 0.316 µM
# [16] = second compound 0.316 µM, first compound 1 µM
# [17] = second compound 0.316 µM, first compound 3.16 µM
# [18] = second compound 0.316 µM, first compound 10 µM
# [19] = second compound 1 µM, first compound 0.0316 µM
# [20] = second compound 1 µM, first compound 0.1 µM
# [21] = second compound 1 µM, first compound 0.316 µM
# [22] = second compound 1 µM, first compound 1 µM
# [23] = second compound 1 µM, first compound 3.16 µM
# [24] = second compound 1 µM, first compound 10 µM
# [25] = second compound 3.16 µM, first compound 0.0316 µM
# [26] = second compound 3.16 µM, first compound 0.1 µM
# [27] = second compound 3.16 µM, first compound 0.316 µM
# [28] = second compound 3.16 µM, first compound 1 µM
# [29] = second compound 3.16 µM, first compound 3.16 µM
# [30] = second compound 3.16 µM, first compound 10 µM
# [31] = second compound 10 µM, first compound 0.0316 µM
# [32] = second compound 10 µM, first compound 0.1 µM
# [33] = second compound 10 µM, first compound 0.316 µM
# [34] = second compound 10 µM, first compound 1 µM
# [35] = second compound 10 µM, first compound 3.16 µM
# [36] = second compound 10 µM, first compound 10 µM
# 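Note: spheroids exposed to compounds for seven days before readout.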
structure (smiles),measurement,setting,value
CC1COCCN1c1cc(C2(S(C)(=N)=O)CC2)nc(-c2ccnc3[nH]ccc23)n1 (stereo unspecified) + COC1C(OC(N)=O)C(O)C(Oc2ccc3c(O)c(NC(=O)c4ccc(O)c(CC=C(C)C)c4)c(=O)oc3c2C)OC1(C)C,IC50,second compound 0.0316 µM,4.83 µM
same,IC50,second compound 0.1 µM,4.54 µM
same,IC50,second compound 0.316 µM,4.01 µM
same,IC50,second compound 1 µM,4.46 µM
same,IC50,second compound 3.16 µM,4.77 µM
same,IC50,second compound 10 µM,4.93 µM
same,"viability, T/C",[1],105%
same,"viability, T/C",[2],107%
same,"viability, T/C",[3],80.2%
same,"viability, T/C",[4],77.6%
same,"viability, T/C",[5],70.1%
same,"viability, T/C",[6],27.7%
same,"viability, T/C",[7],85.6%
same,"viability, T/C",[8],84.5%
same,"viability, T/C",[9],73.7%
same,"viability, T/C",[10],73.3%
same,"viability, T/C",[11],57.2%
same,"viability, T/C",[12],34.2%
same,"viability, T/C",[13],84.9%
same,"viability, T/C",[14],86.1%
same,"viability, T/C",[15],74.7%
same,"viability, T/C",[16],77.8%
same,"viability, T/C",[17],53.6%
same,"viability, T/C",[18],33%
same,"viability, T/C",[19],101%
same,"viability, T/C",[20],98.7%
same,"viability, T/C",[21],79.1%
same,"viability, T/C",[22],72.1%
same,"viability, T/C",[23],55.2%
same,"viability, T/C",[24],37.9%
same,"viability, T/C",[25],94.6%
same,"viability, T/C",[26],89.5%
same,"viability, T/C",[27],97%
same,"viability, T/C",[28],86.4%
same,"viability, T/C",[29],57.2%
same,"viability, T/C",[30],37.2%
same,"viability, T/C",[31],118%
same,"viability, T/C",[32],79.4%
same,"viability, T/C",[33],85.7%
same,"viability, T/C",[34],77.2%
same,"viability, T/C",[35],55.7%
same,"viability, T/C",[36],38.6%
CCCS(=O)(=O)Nc1ccc(F)c(C(=O)c2c[nH]c3ncc(-c4ccc(Cl)cc4)cc23)c1F + COC1C(OC(N)=O)C(O)C(Oc2ccc3c(O)c(NC(=O)c4ccc(O)c(CC=C(C)C)c4)c(=O)oc3c2C)OC1(C)C,IC50,second compound 0.0316 µM,5.65 µM
same,IC50,second compound 0.1 µM,6.17 µM
same,IC50,second compound 0.316 µM,5.04 µM
same,IC50,second compound 1 µM,5.74 µM
same,IC50,second compound 3.16 µM,5.75 µM
same,IC50,second compound 10 µM,6.76 µM
same,"viability, T/C",[1],73.7%
same,"viability, T/C",[2],113%
same,"viability, T/C",[3],96.1%
same,"viability, T/C",[4],117%
same,"viability, T/C",[5],85%
same,"viability, T/C",[6],15.7%
same,"viability, T/C",[7],96.9%
same,"viability, T/C",[8],112%
same,"viability, T/C",[9],107%
same,"viability, T/C",[10],109%
same,"viability, T/C",[11],103%
same,"viability, T/C",[12],12.1%
same,"viability, T/C",[13],132%
same,"viability, T/C",[14],121%
same,"viability, T/C",[15],76.7%
same,"viability, T/C",[16],99.8%
same,"viability, T/C",[17],85%
same,"viability, T/C",[18],12.4%
same,"viability, T/C",[19],108%
same,"viability, T/C",[20],77.6%
same,"viability, T/C",[21],121%
same,"viability, T/C",[22],94.5%
same,"viability, T/C",[23],89.9%
same,"viability, T/C",[24],13.3%
same,"viability, T/C",[25],108%
same,"viability, T/C",[26],117%
same,"viability, T/C",[27],101%
same,"viability, T/C",[28],95.5%
same,"viability, T/C",[29],89.2%
same,"viability, T/C",[30],16.6%
same,"viability, T/C",[31],93.9%
same,"viability, T/C",[32],83.7%
same,"viability, T/C",[33],93.7%
same,"viability, T/C",[34],82.5%
same,"viability, T/C",[35],87.1%
same,"viability, T/C",[36],30.9%
Cn1ncnc1[C@H]1c2n[nH]c(=O)c3cc(F)cc(c23)N[C@@H]1c1ccc(F)cc1 + COC1C(OC(N)=O)C(O)C(Oc2ccc3c(O)c(NC(=O)c4ccc(O)c(CC=C(C)C)c4)c(=O)oc3c2C)OC1(C)C,IC50,second compound 0.0316 µM,> 0.1 µM
same,IC50,second compound 0.1 µM,> 0.1 µM
same,IC50,second compound 0.316 µM,> 0.1 µM
same,IC50,second compound 1 µM,> 0.1 µM
same,IC50,second compound 3.16 µM,> 0.1 µM
same,IC50,second compound 10 µM,> 0.1 µM
same,"viability, T/C","second compound 0.0316 µM, first compound 0.000316 µM",76.1%
same,"viability, T/C","second compound 0.0316 µM, first compound 0.001 µM",95.3%
same,"viability, T/C","second compound 0.0316 µM, first compound 0.00316 µM",77.6%
same,"viability, T/C","second compound 0.0316 µM, first compound 0.01 µM",92.6%
same,"viability, T/C",[1],90.5%
same,"viability, T/C",[2],100%
same,"viability, T/C","second compound 0.1 µM, first compound 0.000316 µM",106%
same,"viability, T/C","second compound 0.1 µM, first compound 0.001 µM",88.8%
same,"viability, T/C","second compound 0.1 µM, first compound 0.00316 µM",102%
same,"viability, T/C","second compound 0.1 µM, first compound 0.01 µM",96.2%
same,"viability, T/C",[7],96%
same,"viability, T/C",[8],84.7%
same,"viability, T/C","second compound 0.316 µM, first compound 0.000316 µM",89.2%
same,"viability, T/C","second compound 0.316 µM, first compound 0.001 µM",98.7%
same,"viability, T/C","second compound 0.316 µM, first compound 0.00316 µM",98.9%
same,"viability, T/C","second compound 0.316 µM, first compound 0.01 µM",77.8%
same,"viability, T/C",[13],93.1%
same,"viability, T/C",[14],88.4%
same,"viability, T/C","second compound 1 µM, first compound 0.000316 µM",75.9%
same,"viability, T/C","second compound 1 µM, first compound 0.001 µM",93.4%
same,"viability, T/C","second compound 1 µM, first compound 0.00316 µM",76.4%
same,"viability, T/C","second compound 1 µM, first compound 0.01 µM",77.8%
same,"viability, T/C",[19],97.7%
same,"viability, T/C",[20],107%
same,"viability, T/C","second compound 3.16 µM, first compound 0.000316 µM",78.6%
same,"viability, T/C","second compound 3.16 µM, first compound 0.001 µM",100%
same,"viability, T/C","second compound 3.16 µM, first compound 0.00316 µM",95.3%
same,"viability, T/C","second compound 3.16 µM, first compound 0.01 µM",92.8%
same,"viability, T/C",[25],87.8%
same,"viability, T/C",[26],77.7%
same,"viability, T/C","second compound 10 µM, first compound 0.000316 µM",60.5%
same,"viability, T/C","second compound 10 µM, first compound 0.001 µM",94.8%
same,"viability, T/C","second compound 10 µM, first compound 0.00316 µM",101%
same,"viability, T/C","second compound 10 µM, first compound 0.01 µM",76.2%
same,"viability, T/C",[31],94%
same,"viability, T/C",[32],103%

# From PubChem BioAssay AID1963836 (Molecular Pharmacology Branch, DTP, NCI, 2024)
